Results on six substances are retold here after article PMC8348142, “Antimicrobial Peptide Modifications against Clinically Isolated Antibiotic-Resistant Salmonella” (Molecules, 2021).

Ends that are not written are not given here.

In this assay the test system is clinical Salmonella isolates. Put plainly: MIC, broth microdilution. In kind it is cell-based. The conditions noted are these: for MIC: MHB, 5 × 10^5 CFU/mL, 37 °C, 18 h, duplicate. Here is the method:
All 12 isolates of Salmonella used in this study were clinical isolates and anonymous left-overs from laboratory diagnoses. They were maintained in a 20% glycerol (Sigma-Aldrich) stock at −80 °C and further cultured on Mueller-Hinton agar (MHA, Oxoid, Hampshire, UK) at 37 °C for 18 h to obtain single colonies for antimicrobial assays. This study was approved by the Ethics Committee of the Faculty of Tropical Medicine (Mahidol University, Bangkok, Thailand; MUTM-EXMPT 2017-007).
MIC was determined using the broth microdilution method described by Hancock with some modifications. Briefly, bacterial colonies grown from the MHA were prepared in MHB (Oxoid) as a 0.5 McFarland suspension (which is equal to 1 × 10^8 CFU/mL), and was further 200-fold diluted by the MHB (5 × 10^5 CFU/mL). The bacterial suspension (50 µL) was mixed with 2-fold serial dilutions of peptide (5.5 µL) achieving final concentrations of 256 to 1 µM using a round-bottom polypropylene (PP) 96-well plate (Greiner Bio-One). The plate was incubated at 37 °C for 18 h including incubating peptide free-bacteria as positive growth control, and MHB as negative growth control. After the incubation, the lowest concentration with no visible growth was defined as a MIC value. The assay was performed in a duplicate manner.
In general terms: In broth dilution the organism is exposed to a series of concentrations in liquid medium.

Setting [1] is: isolate 5 (Enteritidis, blood; resistant AMP, SXT, KZ).
Setting [2] is: isolate 7 (Typhimurium, blood; resistant AMP, CN, TE, NA, SXT).
The mark [3] stands for this setting: isolate 55 (Typhimurium, blood; resistant AMP, SXT, C, TE).
Setting [4] is: isolate 61 (Enteritidis, blood; resistant AMP, TE, NA, SXT).
Setting [5] is: isolate 69 (Typhimurium, stool; resistant AMP).
Setting [6] is: isolate 76 (Enteritidis, CSF; resistant NA).
Where [7] appears, read: isolate 78 (Enteritidis, blood; resistant TE, CIP, NA, SXT).
[8] abbreviates: isolate 107 (Typhimurium, stool; susceptible).

“FIGAIARLLSK [BmKn-22, reference compound]”: the minimal inhibitory concentration (MIC) was more than 256 µM under setting [1]; more than 256 µM under setting [2]; more than 256 µM under setting [3]; more than 256 µM under setting [4]; more than 256 µM under setting [5]; more than 256 µM under setting [6]. For the same substance, the MIC is on record as more than 256 µM under setting [7] and more than 256 µM under setting [8].

For “FIGAIARLLSKIF [BmKn-2, reference compound]”, the “MIC values, range over isolates” value (eight clinical Salmonella isolates, peptide 256–1 µM tested) was in the range of 64 to 256 µM. Further, the MIC is on record as 128 µM under setting [1]; 128 µM under setting [2]; 256 µM under setting [3]; 256 µM under setting [4]; 256 µM under setting [5]; 64 µM under setting [6]. The MIC by setting is: under setting [7], 128 µM; under setting [8], 64 µM.

Turning to FPSFLVGR [Pug-4, reference compound], the MIC under setting [1] was more than 256 µM; the MIC under setting [2] is recorded as more than 256 µM; the minimum inhibitory concentration (MIC) under setting [3] was more than 256 µM; the MIC under setting [4] was more than 256 µM; the MIC under setting [5] is more than 256 µM; the MIC under setting [6] is reported as more than 256 µM. Moreover, the MIC by setting is: under setting [7], more than 256 µM; under setting [8], more than 256 µM.

For KLKLLLLLKL [KLK1, reference compound], the MIC reads like this: under setting [1], more than 256 µM; under setting [2], more than 256 µM; under setting [3], more than 256 µM; under setting [4], more than 256 µM; under setting [5], more than 256 µM; under setting [6], more than 256 µM. The MIC was more than 256 µM under setting [7] and more than 256 µM under setting [8].

Regarding “KLKLLLLLKLK-NH2 [KLK, reference compound]”, the MIC is listed as more than 256 µM under setting [1]; more than 256 µM under setting [2]; more than 256 µM under setting [3]; more than 256 µM under setting [4]; more than 256 µM under setting [5]; more than 256 µM under setting [6]. The MIC runs as follows: under setting [7], more than 256 µM; under setting [8], more than 256 µM.

Take “LLKLFFPFLETGE [Pug-1, reference compound]”: the MIC reads like this: under setting [1], more than 256 µM; under setting [2], more than 256 µM; under setting [3], more than 256 µM; under setting [4], more than 256 µM; under setting [5], more than 256 µM; under setting [6], more than 256 µM. The substance further showed an MIC under setting [7] of more than 256 µM and an MIC under setting [8] of more than 256 µM.

As a reminder, the MIC is the smallest concentration in the dilution series that meets the test's criterion for growth inhibition.
